IC50 data for 94 molecules are collected here from PubChem BioAssay AID1981 (Southern Research Specialized Biocontainment Screening …, 2009).

This assay concerns S. Typhimurium PhoP-promoter GFP reporter counterscreen, fluorescence, 4 h. Nature of the assay: S. Typhimurium GFP fluorescence modified counterscreen for PhoP regulon inhibitor project dose response (AID 1981). A general note: A counterscreen serves to expose hits that act by an unwanted route or on another target.
For `O=C(CN1CCCC1)N/N=C/c1c(O)ccc2ccccc12`, the IC50 (usually the concentration at which inhibition is half-maximal) was 70.6 µM. With `CN1CCN(C(c2ccc(Br)cc2)c2cc(Cl)c3cccnc3c2O)CC1` (centres undefined), the IC50 was 24 µM.

Take `CCCCCCCCCCOC(=O)Cn1c(COc2ccccc2)[n+](C)c2ccccc21`: the IC50 was 64.3 µM. Consider `O=C(NC(CO)C(O)c1ccc([N+](=O)[O-])cc1)C(Cl)Cl` (centres undefined), for which the IC50 is 9.17 µM. `CS(=O)(=O)c1ccc([C@@H](O)[C@@H](CF)NC(=O)C(Cl)Cl)cc1`: the IC50 is 7.98 µM. In the case of `COc1ccc(OC)c(C(=O)C2COC(=O)C2)c1` (centres undefined), the IC50 was 134 µM. `CCCC(=O)NC(c1ccc(C)cc1)c1ccc2cccnc2c1O` (centres undefined): the IC50 was 54.7 µM. For the molecule `Fc1ccccc1CCNCc1ccccc1`, the IC50 was 49.2 µM. For the molecule `C=C1c2c(Cl)ccc(O)c2C(O)=C2C(=O)[C@]3(O)C(O)=C(C(N)=O)C(=O)[C@@H](N(C)C)[C@@H]3[C@@H](O)C12` (some centres undefined), the IC50 is 0.94 µM. Regarding `CCCCCCCCCCCCCCCC[N+](C)(C)C`, the IC50 was 37.9 µM. Consider `CN1CCN(C(c2ccc(Cl)cc2)c2cc(Cl)c3cccnc3c2O)CC1` (centres undefined), for which the IC50 is 32.9 µM.

In the case of `O=C(O)CSc1cc(NS(=O)(=O)c2cccc([N+](=O)[O-])c2)c2ccccc2c1O`, the IC50 is 73.2 µM. For the molecule `Cc1cc(C(=O)N/N=C/c2ccc(O)c(O)c2O)c(C)n1-c1ccccc1`, the IC50 was 30 µM.

As for `CC(C)NC1=C(Cl)C(=O)c2ccccc2C1=O`, the IC50 was 59.4 µM. Consider `CC1CCC(C(C)C)C(OC(=O)Cn2c(COc3ccccc3)[n+](C)c3ccccc32)C1` (centres undefined), for which the IC50 was 85.5 µM.

On to `C=CC1=C(C(=O)O)N2C(=O)[C@@H](NC(=O)/C(=N/OCC(=O)O)c3csc(N)n3)[C@H]2SC1`, for which the IC50 was 17.9 µM. Regarding `CNC[C@H](Cc1ccccc1)NC[C@@H](Cc1cccc2ccccc12)NCCc1ccc(C)cc1`, the IC50 was 29.9 µM.

Consider `CCn1cc(C(=O)NCCCO)c(=O)c2cc(F)c(N3CCN(C)CC3)cc21`, for which the IC50 is 46 µM. As for `Cc1[nH]n(-c2ccccc2)c(=O)c1/C=N/Nc1nncc(-c2ccccc2)n1`, the figure is 22.1 µM; as for `NC1CCN(c2c(F)cc3c(=O)c(C(=O)O)cn(C4CC4)c3c2Cl)C1` (centres undefined), below 0.23 µM; as for `O=C(NC(CO)Cc1ccc([N+](=O)[O-])cc1)C(Cl)Cl` (centres undefined), 9.48 µM. The same measure for `Cc1ccccc1OCc1n(CC(=O)OC2CC(C)CCC2C(C)C)c2ccccc2[n+]1C` (centres undefined): 80.1 µM; for `CCCCCNCC(=O)Nc1cccc(C(=O)Nc2cccc(C(F)(F)F)c2)c1`: 135 µM. As for `CN1/C(=C\C=C\C2=[N+](C)c3ccc4ccccc4c3C2(C)C)C(C)(C)c2ccccc21`, the figure is 14.1 µM.

For the molecule `Cc1nc2c(=O)n(C)c(=O)nc-2n(C)n1`, the IC50 is 0.6 µM. Regarding `O=C(Nc1nnc(-c2cccs2)o1)c1cccc(Oc2ccccc2)c1`, the half-maximal inhibitory concentration (IC50) is 54.6 µM.

In the case of `CCCCCCNC(=O)c1cn(CC)c2cc(N3CCN(C)CC3)c(F)cc2c1=O`, the IC50 was 32 µM. The same measure for `Cc1cccc(Nc2cc(C)c3c(O)cccc3n2)c1C`: 82.7 µM; for `CCOC(=O)c1ccc(-c2ccc(C3Nc4ccccc4C(=O)N3O)o2)cc1` (centres undefined): 112 µM; for `Cc1cc(NC(c2cccnc2)c2ccc3cccnc3c2O)no1` (centres undefined): 130 µM. As for `CCn1cc(C(=O)NCC(C)C)c(=O)c2cc(F)c(N3CCN(C)CC3)cc21`, the figure is 72.6 µM; as for `Oc1ccc(N=Cc2ccc(O)c(O)c2)cc1`, 67.6 µM. Regarding `NC1=NC2(CCCCC2)N=C(Nc2ccc(Br)cc2)N1`, the IC50 was 138 µM. Take `CN(C)c1ccc(O)c2c1CC1CC3C(N(C)C)C(=O)C(C(N)=O)=C(O)[C@@]3(O)C(=O)C1=C2O` (some centres undefined): the 50% inhibitory concentration (IC50) is 1.54 µM. Regarding `C/C(=N\Nc1ncnc2sc(C)c(C)c12)c1ccccn1`, the IC50 is 33.4 µM.

For the molecule `CN1CCN(C(c2ccc(C(F)(F)F)cc2)c2cc(Cl)c3cccnc3c2O)CC1` (centres undefined), the IC50 was 30.2 µM. On to `O=c1cc2oc3cc(O)c(O)cc3c(-c3ccccc3[N+](=O)[O-])c-2cc1O`, for which the IC50 is 56.6 µM. With `CCCCCCCCCC[n+]1cccc2c3ccccc3ccc21`, the IC50 is 43.8 µM. Take `NC1=NC[C@H](Cc2ccccc2)N1CCCCC1CCCCC1`: the IC50 is 61.1 µM. The same measure for `CCC(C)N1CCC2(CC1)N=c1c(c3c4c5c(C)c(O)c3c(O)c1=NC(=O)C(C)=CC=C[C@H](C)[C@H](O)[C@@H](C)[C@@H](O)[C@@H](C)[C@H](OC(C)=O)[C@H](C)[C@@H](OC)C=CO[C@@](C)(O5)C4=O)N2` (some centres undefined): 3.03 µM; for `CC1COc2c(N3CCN(C)CC3)c(F)cc3c(=O)c(C(=O)O)cn1c23` (centres undefined): 0.56 µM. For the molecule `CC(=O)Oc1ccc(C(=O)[C@H]2[C@H]3C(=O)N(c4ccc5ccccc5c4)C(=O)[C@H]3[C@@H]3C=CC=NN32)cc1`, the IC50 was 138 µM. The same measure for `CN(C)S(=O)(=O)c1cccc(NC(=S)N/N=C/c2cc(Br)ccc2O)c1`: 54.7 µM. The same measure for `CCCCCc1ccc(OCCOCCn2c[n+](C)c3ccccc32)c(CCCCC)c1`: 55 µM; for `CCOC(=O)C[n+]1c(C)sc2ccc(OC)cc21`: 133 µM. Consider `ON=C1/C(=N\O)CC2(C/C1=N/O)OCCO2`, for which the IC50 is 125 µM. Turning to `CC(C(=O)c1ccc(-c2ccccc2)cc1)[n+]1cccc(NC(=O)c2ccccc2)c1` (centres undefined), the IC50 was 106 µM.

In the case of `Cc1cc2nc3ccc(=[N+](C)C)cc-3sc2cc1N`, the IC50 was 32.4 µM. The same measure for `CCOC(=O)Cc1csc(NC(=O)NC2(C(F)(F)F)Oc3cc(Cl)c(Cl)cc3O2)n1`: 67.8 µM; for `Cc1ccccc1Nc1cc(C)c2c(O)cccc2n1`: 88.2 µM; for `O=C(N/N=C/c1ccc([N+](=O)[O-])o1)c1ccc(O)cc1`: 21 µM.

Take `CCCCCCCCCCOC(=O)Cn1c(COc2ccc(Cl)cc2)[n+](C)c2ccccc21`: the IC50 was 26.7 µM. As for `CCn1cc(C(=O)O)c(=O)c2cc(F)c(N3CCN(C(=S)NC(=O)c4ccccc4)CC3)cc21`, the IC50 is 13.8 µM. As to `COc1ccc(C(C[N+](=O)[O-])C2(c3ccc(OC)c(OC)c3)C(=O)c3ccccc3C2=O)cc1` (centres undefined), the IC50 was 23.6 µM. Take `O=S1(=O)N=C(N/N=C/c2ccccn2)c2ccccc21`: the half-inhibitory concentration (IC50) was 29.1 µM. Take `CCn1cc(C(=O)O)c(=O)c2cc(F)c(N3CCN(C(=S)NC(=O)c4c(OC)cccc4OC)CC3)cc21`: the IC50 is 62.8 µM. `C[C@H]1c2cccc(O)c2C(O)=C2C(=O)[C@]3(O)C(O)=C(C(N)=O)C(=O)[C@@H](N(C)C)C3[C@@H](O)C21` (some centres undefined): the IC50 is 1.31 µM. Take `O=C(Nc1ccccc1)Nc1ncc([N+](=O)[O-])s1`: the IC50 is 53.4 µM.

As to `Cc1ccc(C(C[N+](=O)[O-])c2c(N)n(C)c(=O)n(C)c2=O)cc1` (centres undefined), the IC50 is 18.4 µM. The same measure for `CN(O)/C=c1/ccc2c(n1)C(=O)C=CC=2`: 54.1 µM.

With `CN(C)[C@@H]1C(=O)C(C(N)=O)=C(O)[C@@]2(O)C(=O)C3=C(O)c4c(O)cccc4[C@@](C)(O)C3[C@H](O)C12` (some centres undefined), the IC50 was 1.34 µM.

As for `Oc1cccc(Nc2nc(NCC3CCCO3)c3ccccc3n2)c1` (centres undefined), the IC50 is 148 µM. As to `O=C1c2ccccc2C(=O)N1c1cccc(-c2csc(Nc3ccc4c(c3)OCO4)n2)c1`, the IC50 is 128 µM. For the molecule `Nc1nc2ccccc2n1Cc1ccc(Cl)c(Cl)c1`, the IC50 was 85.6 µM. The same measure for `COc1cc(C(=O)Oc2c(CN3CCOCC3)cc(Cl)c3cccnc23)cc(OC)c1OC`: 113 µM; for `Oc1ccc(/C=N/Nc2nccnc2Cl)c(O)c1`: 63.2 µM; for `Oc1ccc(CN2CCCc3ccccc32)c2cccnc12`: 20 µM. As for `CCCc1nnc(NC(=O)c2cn(CC)c3cc(N4CCN(C)CC4)c(F)cc3c2=O)s1`, the figure is 109 µM; as for `S=c1nc(C2CCCCC2)[nH][nH]1`, 136 µM. As to `Oc1c(CN2CCN(c3ccc(F)cc3)CC2)cc(Cl)c2cccnc12`, the IC50 is 32 µM.

Turning to `O=C(N/N=C/c1ccc([N+](=O)[O-])s1)C(O)c1ccccc1` (centres undefined), the IC50 was 68.4 µM. As to `CC[C@@H](C)[C@H](CNC)NC[C@@H](Cc1cccc2ccccc12)NCCc1cccc(C(F)(F)F)c1`, the IC50 is 39.9 µM.

Regarding `Clc1cc(Br)ccc1OCCCNCc1ccccc1`, the IC50 was 83.4 µM. `Fc1ccc(Nc2nc(NCc3ccco3)c3ccccc3n2)cc1`: the half-maximal inhibitory concentration (IC50) was 32.6 µM.

Consider `O=C(N/N=C\C=C\c1ccc([N+](=O)[O-])o1)c1cccs1`, for which the IC50 was 34.8 µM. As for `COc1c(F)c(F)cc2c(=O)c(C(=O)O)cn(C3CC3)c12`, the IC50 was 66.3 µM.

As for `CC(=O)NC(c1cccc([N+](=O)[O-])c1)c1ccc2cccnc2c1O` (centres undefined), the IC50 was 72.5 µM. For `Cc1cc(C)c(NC(=O)c2cn3c4c(c(N5CCN(C)CC5)c(F)cc4c2=O)OCC3C)c(C)c1` (centres undefined), the IC50 was 35.1 µM. Regarding `Nc1c(Cl)ncnc1N/N=C/c1ccccn1`, the IC50 is 32.2 µM. On to `CCCOc1ccc(C(=O)NC(=S)N2CCN(c3cc4c(cc3F)c(=O)c(C(=O)O)cn4CC)CC2)cc1`, for which the IC50 was 18.6 µM. Turning to `Cc1c2ccncc2c(C)c2c1[nH]c1ccccc12`, the IC50 is 69.7 µM. In the case of `O=C(N/N=C/c1cc([N+](=O)[O-])ccc1O)C1CC1`, the IC50 is 45.2 µM.

Regarding `CCn1cc(C(=O)O)c(=O)c2ccc(C)nc21`, the 50% inhibitory concentration (IC50) is 117 µM.

`CCCCN(CCCC)C(=O)c1cn(CC)c2cc(N3CCN(C)CC3)c(F)cc2c1=O`: the IC50 was 14.2 µM. On to `CCCCCCCCCCOC(=O)Cn1c(COc2ccc(C)cc2)[n+](C)c2ccccc21`, for which the IC50 is 25.8 µM. In the case of `OC(c1cc(C(F)(F)F)nc2c(Cl)cc(Cl)cc12)C1CCCCN1` (centres undefined), the 50% inhibitory concentration (IC50) is 133 µM. In the case of `CCn1cc(C(=O)O)c(=O)c2cc(F)c(N3CCN(C(=S)NC(=O)c4ccc(F)c(F)c4)CC3)cc21`, the IC50 was 46.6 µM. As to `COc1ccc(/C=N/Nc2cc(C)nc3ccccc23)cc1`, the IC50 was 84.8 µM. Consider `Oc1c(C(Nc2cccc(C(F)(F)F)c2)c2cccnc2)ccc2cccnc12` (centres undefined), for which the IC50 is 56.2 µM.

Consider `O=C(NC(=S)NNC(=O)c1ccccc1O)c1ccco1`, for which the 50% inhibitory concentration (IC50) was 41.8 µM.

On to `Cc1ccc(S(=O)(=O)/N=C2/C=C(Sc3ncn[nH]3)C(=O)c3ccccc32)cc1`, for which the IC50 was 36.6 µM.

In the case of `CO[C@@]1(NC(=O)C2SC(=C(C(N)=O)C(=O)O)S2)C(=O)N2C(C(=O)O)=C(CSc3nnnn3C)CS[C@@H]21` (some centres undefined), the half-inhibitory concentration (IC50) was 21.7 µM. As for `O=[N+]([O-])c1ccc(O)c2ncccc12`, the IC50 is 2.7 µM. `CCn1cc(C(=O)NCCCN(C)C)c(=O)c2cc(F)c(N3CCN(C)CC3)cc21`: the IC50 was 64.3 µM.
